Measured values published in PubChem BioAssay (NCI).
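Grown in 96-well plates, cells were treated for 48 hours with each compound at five concentrations. Insufficient inhibition: endpoint recorded as highest concentration tested. At the GI50, growth is halved. TGI marks complete inhibition of growth.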

Legend:
Assay in all cases: growth of human tumour cells (NCI), 48 h
IGROV1 ovarian = test system: IGROV1 ovarian
OVCAR-4 ovarian = test system: OVCAR-4 ovarian
SF-295 CNS = test system: SF-295 CNS
HS 578T breast = test system: HS 578T breast
HT29 colon = test system: HT29 colon
HOP-62 NSCLC = test system: HOP-62 NSCLC
CAKI-1 renal = test system: CAKI-1 renal
MALME-3M melanoma = test system: MALME-3M melanoma
SNB-75 CNS = test system: SNB-75 CNS
RXF 393 renal = test system: RXF 393 renal

Row | SMILES | TGI (IGROV1 ovarian) [µM] | TGI (OVCAR-4 ovarian) [µM] | TGI (SF-295 CNS) [µM] | TGI (HS 578T breast) [µM] | TGI (HT29 colon) [µM] | TGI (HOP-62 NSCLC) [µM] | TGI (CAKI-1 renal) [µM] | TGI (MALME-3M melanoma) [µM] | TGI (SNB-75 CNS) [µM] | TGI (RXF 393 renal) [µM] | GI50 (IGROV1 ovarian) [µM] | GI50 (OVCAR-4 ovarian) [µM] | GI50 (SF-295 CNS) [µM] | GI50 (HS 578T breast) [µM] | GI50 (HT29 colon) [µM] | GI50 (HOP-62 NSCLC) [µM] | GI50 (CAKI-1 renal) [µM] | GI50 (MALME-3M melanoma) [µM] | GI50 (SNB-75 CNS) [µM] | GI50 (RXF 393 renal) [µM]
1 | O=c1[nH]nc(-c2ccc3ccccc3c2)[nH]1 | > 100 | > 100 | > 100 | 24.2 | > 100 | > 100 | > 100 | > 100 | > 100 | > 100 | – | – | – | – | – | – | – | – | – | –
2 | C[N+](C)(N)Cc1nc(-c2ccc(Cl)cc2)no1 | > 100 | > 100 | > 100 | > 100 | > 100 | > 100 | > 100 | > 100 | > 100 | > 100 | – | – | – | – | – | – | – | – | – | –
3 | O=C1c2cccnc2S(=O)(=O)N1c1ccc(Br)cc1 | > 100 | > 100 | > 100 | > 100 | > 100 | > 100 | > 100 | > 100 | > 100 | > 100 | – | – | – | – | – | – | – | – | – | –
4 | CN(C)c1ccc(-c2c(C#N)c(-c3ccccc3)n(NS(=O)(=O)c3ccccc3)c(=O)c2C#N)cc1 | > 100 | > 100 | > 100 | > 100 | > 100 | > 100 | > 100 | > 100 | > 100 | > 100 | – | – | – | – | – | – | – | – | – | –
5 | Cc1c2ccccc2c(/C=N/NC(=O)CSCC(=O)N/N=C/c2c3ccccc3c(C)c3ccccc23)c2ccccc12 | > 100 | > 100 | 49.9 | > 100 | > 100 | 36.1 | > 100 | 97.3 | > 73.3 | 54.9 | – | – | – | – | – | – | – | – | – | –
6 | CCN1CC2=C(OC(N)=C(C#N)C2c2ccc(Cl)cc2)/C(=C/c2ccc(Cl)cc2)C1 (centres undefined) | > 100 | > 100 | > 100 | > 100 | > 100 | 78.4 | 30.5 | 84.7 | 34.2 | 31.9 | – | – | – | – | – | – | – | – | – | –
7 | COc1ccc(C2c3cc4c(cc3OC(N3CCOCC3)C2C)OCO4)cc1OC (centres undefined) | > 100 | > 100 | 32.8 | 22.1 | 46.8 | 72.6 | 26.4 | > 100 | 21.4 | 25.4 | – | – | – | – | – | – | – | – | – | –
8 | O=S(=O)(O)c1cc(O)c(N=NC2S(=O)(=O)OCCOS2(=O)=O)c2ccccc12 | > 100 | > 100 | > 100 | > 100 | > 100 | > 100 | > 100 | > 100 | > 100 | > 100 | – | – | – | – | – | – | – | – | – | –
9 | CC(Nc1cccc(Cl)c1)c1ccncc1 (centres undefined) | > 100 | > 100 | > 100 | > 100 | > 100 | > 100 | > 100 | > 100 | > 100 | > 100 | – | – | – | – | – | – | – | – | – | –
10 | OC1C2CN3CCN(C2)CC1(c1ccccc1)C3 (centres undefined) | > 100 | > 100 | > 100 | > 100 | > 100 | > 100 | > 100 | > 100 | > 100 | > 100 | – | – | – | – | – | – | – | – | – | –
11 | COc1ccccc1C1C(C#N)=C(N)SC(N)=C1C#N | 70 | > 100 | > 100 | > 100 | > 100 | > 100 | > 100 | > 100 | > 100 | > 100 | 11.1 | 81.1 | 67 | > 100 | 37.4 | > 100 | 7.71 | 81.3 | 39.2 | > 100
12 | COC(=O)[C@H](Cc1ccccc1)NC(=O)N(CCN(CCC#N)C(=O)N[C@H](C(=O)OC)C(C)C)c1ccccc1 | > 100 | > 100 | > 100 | > 100 | – | > 100 | > 100 | > 100 | > 100 | > 100 | – | – | – | – | – | – | – | – | – | –
13 | O=C(O)CSC1=NCCN1 | > 100 | > 100 | > 100 | > 100 | > 100 | > 100 | > 100 | > 100 | > 100 | > 100 | – | – | – | – | – | – | – | – | – | –
14 | CCOC(=O)CCCN | > 100 | > 100 | > 100 | > 100 | > 100 | > 100 | > 100 | > 100 | > 100 | > 100 | – | – | – | – | – | – | – | – | – | –
15 | COc1nc2ncc([C@@H](OC(C)=O)[C@@H](COC(C)=O)OC(C)=O)nc2c(=O)n1C | > 100 | > 100 | > 100 | > 100 | > 100 | > 100 | > 100 | > 100 | > 100 | > 100 | – | – | – | – | – | – | – | – | – | –
16 | C[C@]12C(=O)OC[C@H](c3ccccc3)N1C(=O)N(Cc1ccccc1)[C@@H]2CO | > 100 | > 100 | > 100 | > 100 | > 100 | > 100 | > 100 | > 100 | > 100 | > 100 | – | – | – | – | – | – | – | – | – | –
17 | CCCCOc1ccc(/C=C/C2=[N+](CCO)CCO2)cc1 | > 100 | > 100 | > 100 | > 100 | 31.4 | > 100 | > 100 | > 100 | > 100 | 63.3 | – | – | – | – | – | – | – | – | – | –
